In PubChem BioAssay (NCI):
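Five compound concentrations were applied to cells in 96-well plates for 48 hours; endpoints were derived by simple linear interpolation of the resulting dose-response curve. The concentration for full growth arrest is given as TGI.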

Experiments:
Test in all cases: DTP human tumour cell line panel, 48 h
[1] = system: 786-0 renal
[2] = system: A498 renal
[3] = system: ACHN renal
[4] = system: BT-549 breast
[5] = system: CAKI-1 renal
[6] = system: CCRF-CEM leukemia
[7] = system: COLO 205 colon
[8] = system: DU-145 prostate
[9] = system: EKVX NSCLC
[10] = system: HCT-116 colon
[11] = system: HCT-15 colon
[12] = system: HL-60(TB) leukemia
[13] = system: HOP-62 NSCLC
[14] = system: HS 578T breast
[15] = system: HT29 colon
[16] = system: IGROV1 ovarian
[17] = system: K-562 leukemia
[18] = system: KM12 colon
[19] = system: LOX IMVI melanoma
[20] = system: M14 melanoma
[21] = system: MALME-3M melanoma
[22] = system: MCF7 breast
[23] = system: MDA-MB-231 breast
[24] = system: MDA-MB-435
[25] = system: MDA-N
[26] = system: MOLT-4 leukemia
[27] = system: NCI-H226 lung
[28] = system: NCI-H23 lung
[29] = system: NCI/ADR-RES ovarian
[30] = system: OVCAR-3 ovarian
[31] = system: OVCAR-5 ovarian
[32] = system: OVCAR-8 ovarian
[33] = system: PC-3 prostate
[34] = system: RPMI-8226 leukemia
[35] = system: RXF 393 renal
[36] = system: SF-268 CNS
[37] = system: SF-539 CNS
[38] = system: SK-MEL-2 melanoma
[39] = system: SK-MEL-28 melanoma
[40] = system: SK-MEL-5 melanoma
[41] = system: SK-OV-3 ovarian
[42] = system: SN12C renal
[43] = system: SNB-19 CNS
[44] = system: SW-620 colon
[45] = system: T-47D breast
[46] = system: TK-10 renal
[47] = system: U251 CNS
[48] = system: UACC-257 melanoma
[49] = system: UACC-62 melanoma
[50] = system: UO-31 renal

CC(C)(C)C(=O)N(C(=S)OCc1ccccn1)c1ccccc1
TGI [1]: > 100 µM
TGI [2]: > 100 µM
TGI [3]: > 100 µM
TGI [4]: > 100 µM
TGI [5]: > 100 µM
TGI [6]: 68 µM
TGI [7]: 49.6 µM
TGI [8]: > 100 µM
TGI [9]: 57.7 µM
TGI [10]: 52.3 µM
TGI [11]: 85.2 µM
TGI [12]: 64.8 µM
TGI [13]: 46.8 µM
TGI [14]: > 100 µM
TGI [15]: > 100 µM
TGI [16]: 54.3 µM
TGI [17]: > 100 µM
TGI [18]: 71.4 µM
TGI [19]: 51.6 µM
TGI [20]: > 100 µM
TGI [21]: 44.6 µM
TGI [22]: 61.5 µM
TGI [23]: > 100 µM
TGI [24]: > 100 µM
TGI [25]: > 100 µM
TGI [26]: 62.4 µM
TGI [27]: > 100 µM
TGI [28]: > 100 µM
TGI [29]: 91.8 µM
TGI [30]: > 100 µM
TGI [31]: > 100 µM
TGI [32]: > 100 µM
TGI [33]: > 100 µM
TGI [34]: 58.7 µM
TGI [35]: 63.9 µM
TGI [36]: > 100 µM
TGI [37]: 46.3 µM
TGI [38]: 70.5 µM
TGI [39]: > 100 µM
TGI [40]: 46.6 µM
TGI [41]: > 100 µM
TGI [42]: > 100 µM
TGI [43]: > 100 µM
TGI [44]: > 100 µM
TGI [45]: 63.5 µM
TGI [46]: > 100 µM
TGI [47]: > 100 µM
TGI [48]: > 100 µM
TGI [49]: > 100 µM
TGI [50]: 84.3 µM
